Legend:
[1] = Guest molecule concentration after incubation in initial medium without polymer (Comparative Example 1); format: physicochemical; details: 37° C.
In short: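 Dissolved guest content measured by HPLC of centrifuged supernatants (37° C., 13000 rpm, 5 min) sampled at 0.5 h, 3 h and 6 h. Incubation was polymer-free at 37° C.±0.5° C. in buffers of pH 2.0-7.4; nominal loading was set by maximum clinical dose.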

[2] = Binary supramolecular self-assembly systems of polymer and target: guest concentration over incubation time (Comparative Example 2); format: physicochemical; details: for Times that of the initial medium / Concentration of guest molecule in solution: 6 h
Experimental: Experiments were conducted according to the steps in Comparative Example 1, and quantitative analysis was carried out using the analytical method for each target to investigate the regulation ability […] stacking.

[3] = Binary (carrier), ternary and quaternary supramolecular self-assembly systems of polymer, carrier building block and target: guest concentration over incubation time (Examples 1-56); format: physicochemical; details: 6 h
In short: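 Targets were incubated at 37 °C in pH 2.0–7.4 buffers with 0.5% polymer alone or with carrier building blocks, after 0.5 h sonication for ternary systems, and shaken at 200 rpm. Samples at 0.5–6 h were centrifuged and diluted ≥10-fold, and dissolved target was quantified by HPLC; surfactant was added if needed.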

[4] = cited from earlier work
[5] = binary system with 0.5% polymer 101, incubation 0.5 h
[6] = binary system with 0.5% polymer 101, incubation 3 h
[7] = binary system with 0.5% polymer 101, incubation 6 h
[8] = binary system with 0.5% polymer 102, incubation 0.5 h
[9] = binary system with 0.5% polymer 102, incubation 3 h
[10] = binary system with 0.5% polymer 102, incubation 6 h
[11] = binary system with 0.5% polymer 103, incubation 0.5 h
[12] = binary system with 0.5% polymer 103, incubation 3 h
[13] = binary system with 0.5% polymer 103, incubation 6 h
[14] = binary system with 0.5% polymer 106, incubation 0.5 h
[15] = binary system with 0.5% polymer 106, incubation 3 h
[16] = binary system with 0.5% polymer 106, incubation 6 h
[17] = binary system with 0.5% polymer 107, incubation 0.5 h
[18] = binary system with 0.5% polymer 107, incubation 3 h
[19] = binary system with 0.5% polymer 107, incubation 6 h
[20] = ternary: 102H (0.25% where stated) + 301, carrier % not stated
[21] = ternary: 102H (0.25% where stated) + 302, carrier % not stated

CNC(=O)c1ccc(N2C(=S)N(c3ccc(C#N)c(C(F)(F)F)c3)C(=O)C2(C)C)cc1F [Enzalutamide]
Concentration of guest molecule measured after different incubated time ([1]; 0.5 h, 0.2% SDS in pH 6.8 phosphate buffer): 62.3 µg/mL | Concentration of guest molecule measured after different incubated time ([1]; 3 h, 0.2% SDS in pH 6.8 phosphate buffer): 57.1 µg/mL | Concentration of guest molecule measured after different incubated time ([1]; 6 h, 0.2% SDS in pH 6.8 phosphate buffer): 59.0 µg/mL | Concentration of the target in the solution measured after different incubation time [2, 5]: 272.9 µg/mL | Concentration of the target in the solution measured after different incubation time [2, 6]: 221.8 µg/mL | Concentration of the target in the solution measured after different incubation time [2, 7]: 193.8 µg/mL | Concentration of the target in the solution measured after different incubation time [2, 8]: 90.1 µg/mL | Concentration of the target in the solution measured after different incubation time [2, 9]: 75.5 µg/mL | Concentration of the target in the solution measured after different incubation time [2, 10]: 72.2 µg/mL | Concentration of the target in the solution measured after different incubation time [2, 11]: 102.4 µg/mL | Concentration of the target in the solution measured after different incubation time [2, 12]: 88.4 µg/mL | Concentration of the target in the solution measured after different incubation time [2, 13]: 84.4 µg/mL | Concentration of the target in the solution measured after different incubation time [2, 14]: 150.2 µg/mL | Concentration of the target in the solution measured after different incubation time [2, 15]: 131.1 µg/mL | Concentration of the target in the solution measured after different incubation time [2, 16]: 128.2 µg/mL | Concentration of the target in the solution measured after different incubation time [2, 17]: 236.9 µg/mL | Concentration of the target in the solution measured after different incubation time [2, 18]: 151.4 µg/mL | Concentration of the target in the solution measured after different incubation time [2, 19]: 137.8 µg/mL | Concentration of the target in the solution measured after different incubation time ([2]; binary system with 0.5% polymer 110, incubation 0.5 h): 53.8 µg/mL | Concentration of the target in the solution measured after different incubation time ([2]; binary system with 0.5% polymer 110, incubation 3 h): 45.8 µg/mL | Concentration of the target in the solution measured after different incubation time ([2]; binary system with 0.5% polymer 110, incubation 6 h): 43.0 µg/mL | Times that of the initial medium ([2]; binary: 0.5% 102H): 1.7 times | Times that of the initial medium ([2]; binary: 0.5% 107): 1.9 times | Concentration of guest molecule in solution ([3]; binary: 0.25% 312): 135 µg/mL | Concentration of guest molecule in solution ([3]; binary: 0.25% 318): 175 µg/mL | Concentration of guest molecule in solution ([3]; quaternary: 0.25% 202 (102H+107) + 0.25% 312): 371 µg/mL | Concentration of guest molecule in solution ([3]; quaternary: 0.25% 202 (102H+107) + 0.25% 313): 533 µg/mL | Concentration of guest molecule in solution ([3]; quaternary: 0.25% 202 (102H+107) + 0.25% 318): 451 µg/mL | Concentration of guest molecule in solution ([3]; quaternary: 0.25% 202 (102H+107) + 0.25% 321): 623 µg/mL | LogD7.4 or Log P [4]: 4.16

O=C1[C@H](CC[C@H](O)c2ccc(F)cc2)[C@@H](c2ccc(O)cc2)N1c1ccc(F)cc1 [Ezetimibe]
Concentration of guest molecule measured after different incubated time ([1]; 0.5 h, 0.05% SDS in pH 6.8 phosphate buffer): 6.6 µg/mL | Concentration of guest molecule measured after different incubated time ([1]; 3 h, 0.05% SDS in pH 6.8 phosphate buffer): 6.2 µg/mL | Concentration of guest molecule measured after different incubated time ([1]; 6 h, 0.05% SDS in pH 6.8 phosphate buffer): 6.4 µg/mL | Concentration of the target in the solution measured after different incubation time [2, 8]: 109.4 µg/mL | Concentration of the target in the solution measured after different incubation time [2, 9]: 117.2 µg/mL | Concentration of the target in the solution measured after different incubation time [2, 10]: 138.9 µg/mL | Concentration of the target in the solution measured after different incubation time [2, 11]: 8.4 µg/mL | Concentration of the target in the solution measured after different incubation time [2, 12]: 6.9 µg/mL | Concentration of the target in the solution measured after different incubation time [2, 13]: 0.9 µg/mL | Concentration of the target in the solution measured after different incubation time ([2]; binary system with 0.5% polymer 104, incubation 0.5 h): 6.8 µg/mL | Concentration of the target in the solution measured after different incubation time ([2]; binary system with 0.5% polymer 104, incubation 3 h): 3.6 µg/mL | Concentration of the target in the solution measured after different incubation time ([2]; binary system with 0.5% polymer 104, incubation 6 h): 2.7 µg/mL | Times that of the initial medium ([2]; binary: 0.5% 101): 18 times | Concentration of guest molecule in solution ([2]; binary: 0.5% 102H): 86.6 µg/mL | Times that of the initial medium ([2]; binary: 0.5% 102H): 13.5 times | Concentration of guest molecule in solution [3, 20]: 168.1 µg/mL | Times that of the initial medium [3, 20]: 26 times | Concentration of guest molecule in solution [3, 21]: 188.6 µg/mL | Times that of the initial medium [3, 21]: 29.5 times | LogD7.4 or Log P [4]: 4.56

CCOC(=O)C1=C(C)NC(C)=C(C(=O)OC)C1c1cccc(Cl)c1Cl (stereo not shown) [Felodipine]
Concentration of guest molecule measured after different incubated time ([1]; 0.5 h, 0.05% Tween 20 in pH 6.8 phosphate buffer): 18.1 µg/mL | Concentration of guest molecule measured after different incubated time ([1]; 3 h, 0.05% Tween 20 in pH 6.8 phosphate buffer): 17.8 µg/mL | Concentration of guest molecule measured after different incubated time ([1]; 6 h, 0.05% Tween 20 in pH 6.8 phosphate buffer): 20.4 µg/mL | Concentration of the target in the solution measured after different incubation time [2, 5]: 144.8 µg/mL | Concentration of the target in the solution measured after different incubation time [2, 6]: 152.8 µg/mL | Concentration of the target in the solution measured after different incubation time [2, 7]: 147.5 µg/mL | Concentration of the target in the solution measured after different incubation time [2, 8]: 459.9 µg/mL | Concentration of the target in the solution measured after different incubation time [2, 9]: 472.0 µg/mL | Concentration of the target in the solution measured after different incubation time [2, 10]: 459.4 µg/mL | Concentration of the target in the solution measured after different incubation time [2, 11]: 18.9 µg/mL | Concentration of the target in the solution measured after different incubation time [2, 12]: 18.9 µg/mL | Concentration of the target in the solution measured after different incubation time [2, 13]: 22.2 µg/mL | Concentration of the target in the solution measured after different incubation time [2, 14]: 33.5 µg/mL | Concentration of the target in the solution measured after different incubation time [2, 15]: 30.2 µg/mL | Concentration of the target in the solution measured after different incubation time [2, 16]: 23.6 µg/mL | Concentration of the target in the solution measured after different incubation time [2, 17]: 51.2 µg/mL | Concentration of the target in the solution measured after different incubation time [2, 18]: 26.7 µg/mL | Concentration of the target in the solution measured after different incubation time [2, 19]: 11.8 µg/mL | Concentration of guest molecule in solution ([2]; binary: 0.25% 102H): 276 µg/mL | Times that of the initial medium ([2]; binary: 0.25% 102H): about 13.5 times | Concentration of guest molecule in solution ([3]; ternary: 0.25% 102H + 1.0% 313): 662 µg/mL | Times that of the initial medium ([3]; ternary: 0.25% 102H + 1.0% 313): about 32.5 times | LogD7.4 or Log P [4]: 3.90

From patent US20250339399A1, “SUPRAMOLECULAR SELF-ASSEMBLY SYSTEM” (Beijing Creatron Institute of Pharmaceutical Research Co., …, priority 2022, published 2025)
